{"source": "patent US8846703B2", "about": "“Crystal of a free tricyclic pyrazolopyrimidine derivative” (Daiichi Sankyo Company, Limited, priority 2010, dated 2014)", "key": {"[1]": {"tested_on": "human breast cancer cell line SK-BR-3", "test": "Cell growth inhibition assay (MTT), SK-BR-3", "type": "cell-based", "conditions": "SK-BR-3 cells, 72 hours, read-out: GI50 value (50% growth inhibitory concentration)", "description": "(§1) A cell growth inhibition assay was performed using two types of cells (human breast cancer cell line SK-BR-3 and human lung cancer cell line NCI-H460).\n(§2) Cells of each type were suspended in a medium and seeded into a 96-well multi-well plate at 2000 cells/150 μL/well in the case of SK-BR-3 and at 500 cells/150 μL/well in the case of NCI-H460. Compound (I) was dissolved in DMSO, and this was diluted with medium to prepare a sample solution (DMSO concentration: 0.5% or less). On the day following the seeding, 50 μL of DMSO-containing medium to which the test compound was not added (hereinafter called DMSO diluted solution; DMSO concentration: 0.5% or less) or 50 μL of the sample solution was further added to the cells. An MTT assay was performed immediately after and 72 hours after adding the sample solution or the DMSO diluted solution to the cells. The MTT assay was performed as follows.\n(§3) 5 mg/mL of an MTT (3-(4,5-dimethylthiazol-2-yl)-2,5-diphenyltetrazolium bromide) solution was added at 20 μL per well. Thereafter, the plate was incubated at 37° C. in 5% CO2 for four hours. The plate was centrifuged at 1200 rpm for five minutes, and then the culture supernatant was removed by suction using a dispenser. DMSO was added at 150 μL per well, and the generated formazan was dissolved. […] The absorbance of each well was measured using a plate reader at an OD of 540 nm with a reference of 660 nm. […]"}, "[2]": {"tested_on": "human lung cancer cell line NCI-H460", "test": "Cell growth inhibition assay (MTT), NCI-H460", "type": "cell-based", "conditions": "NCI-H460 cells, 72 hours, read-out: GI50 value (50% growth inhibitory concentration)", "description": "as §1, §2, §3"}}}
{"compound": "CNC(=O)CC1=Cc2nn(Cc3ncc(C)c(OC)c3Cl)c3nc(N)nc(c23)SC1", "note": "[Compound (1), 2-{4-amino-2-[(3-chloro-4-methoxy-5-methylpyridin-2-yl)methyl]-2,7-dihydro-6-thia-1,2,3,5-tetraazabenzo[cd]azulen-8-yl}-N-methylacetamide]", "values": [{"measurement": "GI50", "setting": "[1]", "result": 0.013, "unit": "µM"}, {"measurement": "GI50", "setting": "[2]", "result": 0.026, "unit": "µM"}]}
